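Results reflect a 48-hour exposure of cells in 96-well plates to compound at five concentrations. Abbreviation: GI50, concentration required for 50% inhibition of growth. The concentration for full growth arrest is given as TGI.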
Tests used:
Experiment in all cases: inhibition of tumour cell growth, NCI panel, 48 h
HOP-62 NSCLC = tested on: HOP-62 NSCLC
SK-MEL-28 melanoma = tested on: SK-MEL-28 melanoma
SK-MEL-2 melanoma = tested on: SK-MEL-2 melanoma
HCC-2998 colon = tested on: HCC-2998 colon
SK-MEL-5 melanoma = tested on: SK-MEL-5 melanoma
SNB-19 CNS = tested on: SNB-19 CNS
MCF7 breast = tested on: MCF7 breast
DU-145 prostate = tested on: DU-145 prostate
HS 578T breast = tested on: HS 578T breast
BT-549 breast = tested on: BT-549 breast

SMILES: CC(=O)Oc1cc(Cl)c(OC(C)=O)c2c(OC(C)=O)c(C)c(O[Si](C)(C)C(C)(C)C)cc12
- TGI (HOP-62 NSCLC): 34 µM
- TGI (SK-MEL-28 melanoma): 11.9 µM
- TGI (SK-MEL-2 melanoma): 42.6 µM
- TGI (HCC-2998 colon): 15.5 µM
- TGI (SK-MEL-5 melanoma): 14.6 µM
- TGI (SNB-19 CNS): 25.7 µM

SMILES: Cc1ccc(-c2cc(=O)c3cc(C)c(C)c(C(=O)O)c3o2)cc1[N+](=O)[O-]
- TGI (SK-MEL-28 melanoma): > 100 µM
- TGI (SK-MEL-2 melanoma): > 100 µM
- TGI (SK-MEL-5 melanoma): > 100 µM
- TGI (SNB-19 CNS): > 100 µM

SMILES: C/C(=N\NS(=O)(=O)c1c(C)cc(C)cc1C)c1ccc[n+]([O-])n1
- TGI (HOP-62 NSCLC): > 100 µM
- TGI (SK-MEL-28 melanoma): 27.6 µM
- TGI (HCC-2998 colon): > 100 µM
- TGI (SK-MEL-5 melanoma): > 100 µM
- TGI (SNB-19 CNS): > 100 µM

SMILES: COc1cc(/C=C2\Cc3ccccc3C2=O)cc(OC)c1OC
- TGI (HOP-62 NSCLC): > 100 µM
- TGI (SK-MEL-28 melanoma): > 100 µM
- TGI (SK-MEL-2 melanoma): > 100 µM
- TGI (HCC-2998 colon): > 100 µM
- TGI (SK-MEL-5 melanoma): > 100 µM
- TGI (SNB-19 CNS): > 100 µM

SMILES: O=C(CC1SC(=Nc2ccccc2Cl)NC1=O)Nc1ccc(Cl)cc1 (stereo not drawn)
- TGI (HOP-62 NSCLC): > 100 µM
- TGI (SK-MEL-28 melanoma): > 100 µM
- TGI (SK-MEL-2 melanoma): > 100 µM
- TGI (HCC-2998 colon): > 100 µM
- TGI (SK-MEL-5 melanoma): > 100 µM
- TGI (SNB-19 CNS): > 100 µM

SMILES: C/C=C(\C)C(=O)N1c2ccccc2CC1c1c(C)[nH]c2ccccc12 (stereo not drawn)
- TGI (HOP-62 NSCLC): > 100 µM
- TGI (SK-MEL-28 melanoma): > 100 µM
- TGI (SK-MEL-2 melanoma): 69.6 µM
- TGI (HCC-2998 colon): > 100 µM
- TGI (SNB-19 CNS): > 100 µM

SMILES: CCC(C)(C)NS(=O)(=O)c1ccccc1
- TGI (HOP-62 NSCLC): > 100 µM
- TGI (SK-MEL-28 melanoma): > 100 µM
- TGI (SK-MEL-2 melanoma): > 100 µM
- TGI (HCC-2998 colon): > 100 µM
- TGI (SK-MEL-5 melanoma): > 100 µM

SMILES: COc1cc2c(cc1OC)-c1ncc3cc(OC)c(OC)cc3c1C2
- GI50 (SK-MEL-28 melanoma): > 50 µM
- TGI (SK-MEL-28 melanoma): > 50 µM
- GI50 (SK-MEL-2 melanoma): > 50 µM
- TGI (SK-MEL-2 melanoma): > 50 µM
- GI50 (MCF7 breast): > 50 µM
- TGI (MCF7 breast): > 50 µM
- GI50 (DU-145 prostate): > 50 µM
- TGI (DU-145 prostate): > 50 µM
- GI50 (SK-MEL-5 melanoma): > 50 µM
- TGI (SK-MEL-5 melanoma): > 50 µM
- GI50 (SNB-19 CNS): > 50 µM
- TGI (SNB-19 CNS): > 50 µM

SMILES: CC(=O)OC1(C#N)CC2OC1C1N=NN(C(=O)OC(C)(C)C)C21 (stereo not drawn)
- TGI (HOP-62 NSCLC): > 100 µM
- TGI (SK-MEL-28 melanoma): 35.6 µM
- TGI (SK-MEL-2 melanoma): > 100 µM
- TGI (HCC-2998 colon): > 100 µM
- TGI (SK-MEL-5 melanoma): > 31.6 µM
- TGI (SNB-19 CNS): > 100 µM

SMILES: CCCCCCCCCCCCC(NC(C)=O)(C(=O)OCC)C(=O)OCC
- GI50 (HOP-62 NSCLC): 13.9 µM
- TGI (HOP-62 NSCLC): 27.5 µM
- GI50 (SK-MEL-28 melanoma): 13.5 µM
- TGI (SK-MEL-28 melanoma): 26.9 µM
- GI50 (MCF7 breast): 7.41 µM
- TGI (MCF7 breast): 21.2 µM
- GI50 (HCC-2998 colon): 12.5 µM
- TGI (HCC-2998 colon): 26.2 µM
- GI50 (HS 578T breast): 14 µM
- TGI (HS 578T breast): 45.8 µM
- GI50 (DU-145 prostate): 15.1 µM
- TGI (DU-145 prostate): 28.6 µM
- GI50 (SK-MEL-5 melanoma): 3.87 µM
- TGI (SK-MEL-5 melanoma): 16 µM
- GI50 (SNB-19 CNS): 12.8 µM
- TGI (SNB-19 CNS): 25.6 µM

SMILES: N.N.NCCCCCN.O=C([O-])CC(=O)[O-].O=C([O-])CC(=O)[O-].[Pt+4].[Pt+4]
- GI50 (HOP-62 NSCLC): 43 µM
- TGI (HOP-62 NSCLC): > 100 µM
- GI50 (SK-MEL-28 melanoma): > 100 µM
- TGI (SK-MEL-28 melanoma): > 100 µM
- GI50 (SK-MEL-2 melanoma): > 100 µM
- TGI (SK-MEL-2 melanoma): > 100 µM
- GI50 (HCC-2998 colon): > 100 µM
- TGI (HCC-2998 colon): > 100 µM
- GI50 (SK-MEL-5 melanoma): > 100 µM
- TGI (SK-MEL-5 melanoma): > 100 µM
- GI50 (SNB-19 CNS): > 100 µM
- TGI (SNB-19 CNS): > 100 µM

SMILES: COc1c(Cl)[c]([Hg][O]C(C)=O)c(NCC(C)=O)c(OC)[c]1[Hg][O]C(C)=O
- GI50 (HOP-62 NSCLC): 22.3 µM
- TGI (HOP-62 NSCLC): 37.3 µM
- GI50 (SK-MEL-28 melanoma): 13.3 µM
- TGI (SK-MEL-28 melanoma): 26.2 µM
- GI50 (SK-MEL-2 melanoma): 11.9 µM
- TGI (SK-MEL-2 melanoma): 24.9 µM
- GI50 (HCC-2998 colon): 16.9 µM
- TGI (HCC-2998 colon): 39.1 µM
- GI50 (SK-MEL-5 melanoma): 11.1 µM
- TGI (SK-MEL-5 melanoma): 26.1 µM
- GI50 (SNB-19 CNS): 3.53 µM
- TGI (SNB-19 CNS): 11.2 µM

SMILES: OCCCCCNc1ccnc2cc(Cl)ccc12
- TGI (HOP-62 NSCLC): > 100 µM
- TGI (SK-MEL-28 melanoma): > 100 µM
- TGI (SK-MEL-2 melanoma): > 100 µM
- TGI (HCC-2998 colon): > 100 µM
- TGI (SK-MEL-5 melanoma): > 100 µM
- TGI (SNB-19 CNS): > 100 µM

SMILES: Cc1nc2ccccc2c(/C=C/c2ccccc2)c1C(=O)/C=C/c1ccccc1
- GI50 (HOP-62 NSCLC): 1.9 µM
- TGI (HOP-62 NSCLC): 4.1 µM
- GI50 (SK-MEL-28 melanoma): 1.83 µM
- TGI (SK-MEL-28 melanoma): 3.3 µM
- GI50 (SK-MEL-2 melanoma): 1.92 µM
- TGI (SK-MEL-2 melanoma): 4.08 µM
- GI50 (HCC-2998 colon): 1.86 µM
- TGI (HCC-2998 colon): 3.53 µM
- GI50 (BT-549 breast): 1.73 µM
- TGI (BT-549 breast): 3.67 µM
- GI50 (SK-MEL-5 melanoma): 1.77 µM
- TGI (SK-MEL-5 melanoma): 3.17 µM
- GI50 (SNB-19 CNS): 1.6 µM
- TGI (SNB-19 CNS): 2.96 µM

SMILES: CCOC(=O)NC(=O)c1cn(C2OC(COC(=O)CCCCCCCCC(=O)OCC3OC(n4cc(C(=O)NC(=O)OCC)c(=O)[nH]c4=O)C4OC(C)(C)OC34)C3OC(C)(C)OC32)c(=O)[nH]c1=O (stereo not drawn)
- TGI (HOP-62 NSCLC): > 100 µM
- TGI (SK-MEL-28 melanoma): > 100 µM
- TGI (SK-MEL-2 melanoma): > 100 µM
- TGI (HCC-2998 colon): > 100 µM
- TGI (SK-MEL-5 melanoma): > 100 µM
- TGI (SNB-19 CNS): > 100 µM

SMILES: COc1cc(OC)cc(C(=O)Cc2c(C(=O)c3ccccc3)c3ccccc3n2C(=O)c2ccccc2)c1
- TGI (HOP-62 NSCLC): > 100 µM
- TGI (SK-MEL-28 melanoma): > 100 µM
- TGI (SK-MEL-2 melanoma): 65.9 µM
- TGI (HCC-2998 colon): > 100 µM
- TGI (SK-MEL-5 melanoma): 35.1 µM
- TGI (SNB-19 CNS): 69 µM

SMILES: CC(CCC(=O)O)c1ccc(Br)cc1 (stereo not drawn)
- TGI (HOP-62 NSCLC): > 100 µM
- TGI (SK-MEL-28 melanoma): > 100 µM
- TGI (SK-MEL-2 melanoma): > 100 µM
- TGI (HCC-2998 colon): > 100 µM
- TGI (SK-MEL-5 melanoma): > 100 µM
- TGI (SNB-19 CNS): > 100 µM

SMILES: CC(C)c1cc(C(=O)[O-])c(O)c(C(C)C)c1.CC(C)c1cc(C(=O)[O-])c(O)c(C(C)C)c1.CC(C)c1cc(C(=O)[O-])c(O)c(C(C)C)c1.CC(C)c1cc(C(=O)[O-])c(O)c(C(C)C)c1.CC(C)c1cc(C(=O)[O-])c(O)c(C(C)C)c1.CC(C)c1cc(C(=O)[O-])c(O)c(C(C)C)c1.[Cu+2].[Mn+2].[Mn+2]
- GI50 (HOP-62 NSCLC): 21 µM
- TGI (HOP-62 NSCLC): 42 µM
- GI50 (SK-MEL-28 melanoma): 20.5 µM
- TGI (SK-MEL-28 melanoma): 45.3 µM
- GI50 (SK-MEL-2 melanoma): 20.4 µM
- TGI (SK-MEL-2 melanoma): 42.6 µM
- GI50 (SK-MEL-5 melanoma): 17.1 µM
- TGI (SK-MEL-5 melanoma): 32.3 µM
- GI50 (SNB-19 CNS): 20.8 µM
- TGI (SNB-19 CNS): 47.8 µM

— PubChem BioAssay (NCI)
